According to ChEMBL document CHEMBL1148862, “Evaluation of the anti-hepatitis C virus effect of novel potent, selective, and orally bioavailable JNK and VEGFR kinase inhibitors” (Bioorg Med Chem Lett, 2007):
pEC50: −log10 of the molar value.

Legend:
[1] = test system: Hepatitis C virus; assay: Antiviral activity against HCV in Huh7-Rep cells by luciferase assay; type: functional, organism-based, Hepacivirus hominis
[2] = Cytotoxicity against MT4 cells by luciferase assay; type: cell-based; conditions: human
[3] = Cytotoxicity against Huh7 cells by luciferase assay; type: cell-based, Huh-7; conditions: human

Structure (SMILES) | pEC50 [1] | CC50 [2] | CC50 [3]
CCc1cnccc1Nc1nc(-c2cc(Cl)ccc2F)nc2nccnc12 | 6.15 | > 32 µM | > 32 µM
COc1cnc(-c2cc(Cl)ccc2F)nc1Nc1ccncc1C(=O)NC1CCN(C(=O)OC(C)(C)C)CC1 | 6.00 | 3.9 µM | 4 µM
COc1cnc(-c2cc(Cl)ccc2F)nc1Nc1ccncc1C(=O)NCCCN1CCCCC1C (stereo not given) | 6.26 | 3.3 µM | 3.6 µM
CCCCN(c1ccncc1)c1nc(-c2cc(Br)ccc2F)nc2nccnc12 | 5.66 | > 32 µM | > 32 µM
Fc1ccc(Br)cc1-c1nc(Nc2ccncc2)c2nccnc2n1 | 6.46 | > 32 µM | > 32 µM
Cc1cnccc1Nc1nc(-c2cc(Br)ccc2F)nc2nccnc12 | 6.10 | > 32 µM | > 32 µM
COc1cnc(-c2cc(Cl)ccc2F)nc1Nc1ccncc1C(=O)NCCCN1CCOCC1 | 5.60 | 15.4 µM | 17.1 µM
Fc1ccc(Br)cc1-c1nc(N(CCc2ccccc2)c2ccncc2)c2nccnc2n1 | 5.71 | 11 µM | 22.2 µM
Cc1ccccc1Nc1nc(-c2cc(Br)ccc2F)nc2nccnc12 | 5.19 | > 32 µM | > 32 µM
Fc1ccc(Br)cc1-c1nc(N(Cc2ccccc2)c2ccncc2)c2nccnc2n1 | 6.00 | > 32 µM | > 32 µM
Clc1cccc(-c2nc(Nc3ccncc3)c3nccnc3n2)c1 | 5.78 | > 32 µM | > 32 µM
Cc1cnccc1Nc1nc(-c2cc(Cl)ccc2F)nc2nccnc12 | 5.70 | > 32 µM | > 32 µM
COc1cnc(-c2cc(Cl)ccc2F)nc1Nc1ccncc1C(=O)NCCNCCO | 6.07 | > 32 µM | > 32 µM
COc1cnc(-c2cc(Cl)ccc2F)nc1Nc1ccncc1C(=O)NCCCN1CCCC1=O | 7.08 | 5.8 µM | 17.7 µM
Oc1nc(-c2cc(Cl)ccc2F)nc2nccnc12 | < 4.30 | > 25 µM | > 25 µM
